Data published in paper PMC11211543, “Molecular mimicry of SARS-COV-2 antigens as a possible natural anti-cancer preventive immunization” (Frontiers in Immunology, 2024).

Assays:
[1] = tested on: CD3+/CD8+ T cells of PBMCs from vaccinated donors; assay type: cell-based, human; details: for percentage of circulating reacting CD8+ T cells specific to the homologous TAA epitope, average: TAAs paired to non-spike epitopes; for sum of the reactivities of all subjects for the epitope pair: value of the pair viral epitope/TAA; for percentage of circulating reacting CD8+ T cells specific to the spike peptide, average: PBMCs from 7 vaccinated donors stimulated ex vivo 3 days with the Spike peptide, Dextramer loaded with the same viral peptide
[2] = tested on: CD3+/CD8+ T cells of PBMCs from healthy vaccinated donors; assay: pMHC multimer (tetramer) T cell staining; assay type: cell-based, human; details: MHC-class I tetramer staining
[3] = tested on: PBMCs from HLA-A*02:01–positive individuals; assay: IFN-γ ELISpot assay; assay type: cell-based, human; details: 10 μg/mL peptide, 3×10^5 PBMCs per well, 20 hours, 37°C; SFU per 10^6 PBMCs; mean of subjects, triplicate tests averaged
CD8+ T cell = details: 59 Spike epitopes, different HLA alleles; cited from earlier work
From the text: We have recently assessed T cell reactivity against 59 epitopes predicted in the Spike protein associated to different HLA alleles, covering both the S1 and S2 subunits. In particular, 11 were associated with the HLA-A*02:01 and only three were located in the S1 subunit, namely […] at position 62 and […] at position 269 in the NTD region; […] at position 512 in the RBD region.

Sequence: ALLALTSAV [reference compound]
- percentage of circulating reacting CD8+ T cells specific to the homologous TAA epitope, average [1]: 1.34%
- sum of the reactivities of all subjects for the epitope pair [1]: > 9 % of the total circulating T cells

Sequence: FVGEFFTDV [reference compound]
- percentage of circulating reacting CD8+ T cells specific to the homologous TAA epitope, average [1]: 0.36%

Sequence: HLMSFPQSA
- percentage of circulating reacting CD8+ T cells specific to the spike peptide, average [1]: 0.8%

Sequence: KIADYNYKL [Wuhan, Alpha, Delta]
- percentage of circulating CD8+ T cells specific for the peptide, average [2]: 0,18%
- IFN-γ ELISpot, average over subjects [3]: 9.8 SFU

Sequence: KLLEEWNLV
- sum of the reactivities of all subjects for the epitope pair [1]: ~ 6 % of the total circulating T cells

Sequence: LTDEMIAQY [reference compound]
- IFN-γ ELISpot, average over subjects [3]: 10.8 SFU

Sequence: NYNYLYRLF [reference compound]
- immunodominance of CD8+ T cell memory response (CD8+ T cell): strongest immunodominance

Sequence: RLLQETELV [reference compound]
- sum of the reactivities of all subjects for the epitope pair [1]: ~ 6 % of the total circulating T cells

Sequence: VLLSMQGAV
- sum of the reactivities of all subjects for the epitope pair [1]: > 9 % of the total circulating T cells

Sequence: VLNDIFSRL
- percentage of circulating reacting CD8+ T cells specific to the spike peptide, average [1]: 1.04%

Sequence: YLQPRTFLL
- percentage of circulating CD8+ T cells specific for the peptide, average [2]: 1,23%
- immunodominance of CD8+ T cell memory response (CD8+ T cell): strongest immunodominance
- IFN-γ ELISpot, average over subjects [3]: 87.9 SFU
